Consider one compound from ChEMBL document CHEMBL2331147, “Scutellarin from Scutellaria baicalensis suppresses adipogenesis by upregulating PPARα in 3T3-L1 cells” (J Nat Prod, 2013).

Series [1] concerns 3T3-L1. In words: Effect on PPARdelta mRNA expression in mouse 3T3L1 cells at 10 to 100 uM after 8 days by RT-PCR analysis. Format: functional, cell-based.
The test system of series [2] is 3T3-L1. In words: Antiadipogenic activity in mouse 3T3L1 cells assessed as decrease in intracellular lipid accumulation incubated for 8 days followed by compound wash out measured for 60 mins by Oil Red O staining-based phase contrast microscopic analysis. It is filed as functional, cell-based.
Series [3] relates to 3T3-L1. In words: Antiadipogenic activity in mouse 3T3L1 cells assessed as downregulation of PPARgamma mRNA expression after 8 days by RT-PCR analysis. It is filed as functional, cell-based.
Series [4] concerns 3T3-L1. In words: Downregulation of C/EBPbeta mRNA expression in mouse 3T3L1 cells at 10 to 100 uM after 8 days by RT-PCR analysis. Format: functional, cell-based.
Series [5] concerns 3T3-L1. Nature of the series: Antiadipogenic activity in mouse 3T3L1 cells assessed as downregulation of C/EBPalpha mRNA expression after 8 days by RT-PCR analysis. It is filed as functional, cell-based.
For series [6], the system named is 3T3-L1. In words: Antiadipogenic activity in mouse 3T3L1 cells assessed as downregulation of LPL mRNA expression at 10 to 100 uM after 8 days by RT-PCR analysis. Format: functional, cell-based.
The subject of series [7] is 3T3-L1. In words: Cytotoxicity against mouse 3T3L1 cells assessed as cell viability at < 100 uM after 48 hrs by MTT assay. It is filed as cell-based. As to conditions: 3t3-l1, 48 h. In general terms: Formazan colour is commonly taken as a measure of viable cells.
The test system of series [8] is 3T3-L1. In words: Antiadipogenic activity in mouse 3T3L1 cells assessed as upregulation of PPARalpha mRNA expression after 8 days by RT-PCR analysis. Format: functional, cell-based.

Active and inactive are the calls of the source. The rule behind the calls is not given here.

Regarding `O=C(O)[C@H]1O[C@@H](Oc2cc3oc(-c4ccc(O)cc4)cc(=O)c3c(O)c2O)[C@H](O)[C@@H](O)[C@@H]1O` [SCUTELLARIN], the result in series [1] and in series [4] was inactive. In addition, the Activity result in series [2] is “Dose-dependent effect”; in series [3] it was “Dose-dependent effect”; in series [5], “Dose-dependent effect”; in series [7] it was “Non-toxic”; in series [8], “Dose-dependent effect”. Besides, the result in series [6] was Active.
